Data from patent US9475784B2, “4,6-diarylaminothiazines as BACE1 inhibitors and their use for the reduction of beta-amyloid production” (BRISTOL-MYERS SQUIBB COMPANY, priority 2012, dated 2016).
Structures can show the parent of a compound that is named as a salt.

Test system: Aβ42 production in H4 cells stably transfected with APP751 containing the Swedish mutation (H4 APP751 SWE clone 8.20)
Assay: Cellular assay for inhibition of Aβ1-42 production (H4 APP751 SWE clone 8.20)
Type: cell-based
Conditions: H4 APP751 SWE clone 8.20 cells, 19 h incubation; Table 5A, 6-alkyl and 6-substituted phenyl thiazine examples
Description: Cellular Assays for Inhibition of Aβ1-40 and Aβ1-42 Production
H4 cells stably transfected with APP751 containing the Swedish mutation (H4 APP751 SWE clone 8.20, developed at BMS) were maintained in log phase through twice weekly passage at a 1:20 split. […] Following incubation for 19 h in 5% CO2 at 37° C., plates were briefly centrifuged (1000 rpm, 5 min). A 10 μl aliquot from each well was transferred to a second assay plate (Costar 3709) for Aβ40 measurements. Antibody cocktails were freshly prepared by dilution into 40 mM Tris-HCl (pH 7.4) with 0.2% BSA and added to assay plates. For Aβ42 measurements, antibodies specific for the Aβ42 neoepitope (565, developed at BMS; conjugated to the Wallac reagent (Perkin Elmer)) and the N-terminal sequence of Aβ peptide (26D6, developed at SIBIA; conjugated to APC (Perkin Elmer)) were mixed and 20 μl of the mixture was added to each well of the incubated cell plate yielding a final concentration of 0.8 ng/well 565 and 75 ng/well 26D6. For the Aβ40 measurements, antibodies specific for the Aβ40 neoepitope (TSD, developed at BMS; conjugated to the Wallac reagent (Perkin Elmer)) and 26D6 as described above were mixed and 20 μl of the mixture was added to the 10 μl aliquots which had been removed previously from the cell plate yielding a final concentration of 1.6 ng/well TSD and 17.5 ng/well 26D6. Assay plates containing antibodies were sealed with aluminum foil and incubated overnight at 4° C. Signal was determined using a Viewlux counter (Perkin Elmer) and IC50 values determined using curve fitting in CurveMaster (Excel Fit based).

| Compound | IC50 [nM] |
| --- | --- |
| COc1ccc([C@]23CCCCC2[C@@H](c2cccc(-c4cncnc4)c2)N=C(N)S3)cc1 (mixture of isomers) [Example 17, (±)-8a-(4-methoxyphenyl)-4-(3-(pyrimidin-5-yl)phenyl)-4a,5,6,7,8,8a-hexahydro-4H-benzo[e][1,3]thiazin-2-amine•TFA] | 3300 |
| COc1ccc([C@@H]2C[C@@H](c3ccc(F)c(-c4cncnc4)c3)N=C(N)S2)cc1OC (single isomer, unassigned) [Example 7A] | 350 |
| NC1=N[C@H](c2cccc(-c3cncnc3)c2)C[C@@H](C2CCCCC2)S1 (racemic) [Example 5, (±)-6-cyclohexyl-4-(3-(pyrimidin-5-yl)phenyl)-5,6-dihydro-4H-1,3-thiazin-2-amine] | 3800 |
| NC1=N[C@H](c2cccc(-c3cncnc3)c2)C[C@@H](c2ccc(Cl)cc2)S1 (racemic) [Example 14, (±)-6-(4-chlorophenyl)-4-(3-(pyrimidin-5-yl)phenyl)-5,6-dihydro-4H-1,3-thiazin-2-amine•TFA] | 2700 |
| COc1cccc([C@@H]2C[C@@H](c3cccc(-c4cncnc4)c3)N=C(N)S2)c1 (racemic) [Example 15, (±)-6-(3-methoxyphenyl)-4-(3-(pyrimidin-5-yl)phenyl)-5,6-dihydro-4H-1,3-thiazin-2-amine•TFA] | 2800 |
| COc1ccc([C@@H]2C[C@@H](c3cc(-c4cncnc4)c(F)cc3F)N=C(N)S2)cc1OC (single isomer, unassigned) [Example 1A] | 290 |
| COc1ccc([C@@H]2C[C@@H](c3cc(-c4cncnc4)ccc3F)N=C(N)S2)cc1OC (racemic) [Example 8, (±)-6-(3,4-dimethoxyphenyl)-4-(2-fluoro-5-(pyrimidin-5-yl)phenyl)-5,6-dihydro-4H-1,3-thiazin-2-amine] | 1900 |
| C=CCC[C@@H]1C[C@@H](c2cccc(-c3cncnc3)c2)N=C(N)S1 (racemic) [Example 6, (±)-6-(but-3-enyl)-4-(3-(pyrimidin-5-yl)phenyl)-5,6-dihydro-4H-1,3-thiazin-2-amine] | 14000 |
| COc1ccc([C@@H]2C[C@@H](c3cccc(-c4cncnc4)c3)N=C(N)S2)cc1OC (racemic) [Example 3, (±)-6-(3,4-dimethoxyphenyl)-4-(3-(pyrimidin-5-yl)phenyl)-5,6-dihydro-4H-1,3-thiazin-2-amine] | 1100 |
| COc1ccc([C@@H]2C[C@@H](c3cccc(-c4cccc(C#N)c4)c3)N=C(N)S2)cc1OC (racemic) [Example 31, 3′-((±)-2-amino-6-(3,4-dimethoxyphenyl)-5,6-dihydro-4H-1,3-thiazin-4-yl)biphenyl-3-carbonitrile] | 8900 |

Same assay, conditions: H4 APP751 SWE clone 8.20 cells, 19 h incubation; Table 5B, 6-heterocyclic thiazine examples

| Compound | IC50 [nM] |
| --- | --- |
| Cc1nn(C)c(C)c1[C@@H]1C[C@@H](c2cccc(-c3cncnc3)c2)N=C(N)S1 (racemic) [Example 28, (±)-4-(3-(pyrimidin-5-yl)phenyl)-6-(1,3,5-trimethyl-1H-pyrazol-4-yl)-5,6-dihydro-4H-1,3-thiazin-2-amine•TFA] | > 30000 |
| C[C@@]1(c2ccc(F)cc2F)C[C@@H](c2cncnc2)SC(N)=N1 [Example 62, (4S,6S)-4-(2,4-difluorophenyl)-4-methyl-6-(pyrimidin-5-yl)-5,6-dihydro-4H-1,3-thiazin-2-amine] | 310 |
| Cc1noc(C)c1[C@@H]1C[C@@H](c2cc(-c3cncnc3)c(F)cc2F)N=C(N)S1 (racemic) [Example 29, (±)-4-(2,4-difluoro-5-(pyrimidin-5-yl)phenyl)-6-(3,5-dimethylisoxazol-4-yl)-5,6-dihydro-4H-1,3-thiazin-2-amine] | 200 |
| Cn1nccc1[C@@H]1C[C@@](C)(c2ccc(F)cc2F)N=C(N)S1 [Example 60, (4S,6S)-4-(2,4-difluorophenyl)-4-methyl-6-(1-methyl-1H-pyrazol-5-yl)-5,6-dihydro-4H-1,3-thiazin-2-amine] | 330 |
| NC1=N[C@H](c2cccc(-c3cncnc3)c2)C[C@@H](c2c[nH]cn2)S1 (racemic) [Example 21, (±)-6-(1H-imidazol-4-yl)-4-(3-(pyrimidin-5-yl)phenyl)-5,6-dihydro-4H-1,3-thiazin-2-amine•TFA] | > 30000 |
| COc1ccc([C@@H]2C[C@@H](c3cccc(-c4cncnc4)c3)N=C(N)S2)cn1 [Example 10, (4S,6S)-6-(6-methoxypyridin-3-yl)-4-(3-(pyrimidin-5-yl)phenyl)-5,6-dihydro-4H-1,3-thiazin-2-amine•TFA] | 2100 |
| COc1ccc(-c2cc([C@]3(C)C[C@@H](c4c(C)noc4C)SC(N)=N3)c(F)cc2F)cn1 [Example 54, (4S,6S)-4-(2,4-difluoro-5-(6-methoxypyridin-3-yl)phenyl)-6-(3,5-dimethylisoxazol-4-yl)-4-methyl-5,6-dihydro-4H-1,3-thiazin-2-amine] | 320 |
| Cc1noc(C)c1[C@@H]1C[C@@](C)(c2cc(-c3cnc(F)nc3)c(F)cc2F)N=C(N)S1 [Example 46, (4S,6S)-4-(2,4-difluoro-5-(2-fluoropyrimidin-5-yl)phenyl)-6-(3,5-dimethylisoxazol-4-yl)-4-methyl-5,6-dihydro-4H-1,3-thiazin-2-amine] | 390 |
| Cc1nn(C)cc1[C@@H]1C[C@@H](c2cccc(-c3cncnc3)c2)N=C(N)S1 (racemic) [Example 26, (±)-6-(1,3-dimethyl-1H-pyrazol-4-yl)-4-(3-(pyrimidin-5-yl)phenyl)-5,6-dihydro-4H-1,3-thiazin-2-amine•TFA] | 2500 |
| Cc1noc(C)c1[C@@H]1C[C@@](C)(c2cc(-c3cnc(S(C)(=O)=O)nc3)c(F)cc2F)N=C(N)S1 [Example 52, (4S,6S)-4-(2,4-difluoro-5-(2-(methylsulfonyl)pyrimidin-5-yl)phenyl)-6-(3,5-dimethylisoxazol-4-yl)-4-methyl-5,6-dihydro-4H-1,3-thiazin-2-amine] | 820 |
| Cc1nocc1[C@@H]1C[C@@](C)(c2ccc(F)cc2F)N=C(N)S1 [Example 61, (4S,6S)-4-(2,4-difluorophenyl)-4-methyl-6-(3-methylisoxazol-4-yl)-5,6-dihydro-4H-1,3-thiazin-2-amine] | 300 |
| NC1=N[C@H](c2cccc(-c3cncnc3)c2)C[C@@H](c2ccccn2)S1 (racemic) [Example 22, (±)-6-(pyridin-2-yl)-4-(3-(pyrimidin-5-yl)phenyl)-5,6-dihydro-4H-1,3-thiazin-2-amine•TFA] | 2000 |
| CC#Cc1cncc(-c2csc([C@@H]3C[C@@H](c4c(C)noc4C)SC(N)=N3)c2)c1 (racemic) [Example 36, (±)-6-(3,5-dimethylisoxazol-4-yl)-4-(4-(5-(prop-1-ynyl)pyridin-3-yl)thiophen-2-yl)-5,6-dihydro-4H-1,3-thiazin-2-amine] | 60 |
| Cc1noc(C)c1[C@]1(C)C[C@@H](c2cc(-c3cncnc3)c(F)cc2F)N=C(N)S1 (racemic) [Example 34, (±)-4-(2,4-difluoro-5-(pyrimidin-5-yl)phenyl)-6-(3,5-dimethylisoxazol-4-yl)-6-methyl-5,6-dihydro-4H-1,3-thiazin-2-amine•TFA] | 2700 |
| COc1ncc(-c2cc([C@]3(C)C[C@@H](c4c(C)noc4C)SC(N)=N3)c(F)cc2F)cn1 [Example 58, (4S,6S)-4-(2,4-difluoro-5-(2-methoxypyrimidin-5-yl)phenyl)-6-(3,5-dimethylisoxazol-4-yl)-4-methyl-5,6-dihydro-4H-1,3-thiazin-2-amine] | 120 |
| Cc1noc(C)c1[C@@H]1C[C@@](C)(c2cc(-c3cnccc3C(F)(F)F)c(F)cc2F)N=C(N)S1 [Example 59, (4S,6S)-4-(2,4-difluoro-5-(4-(trifluoromethyl)pyridin-3-yl)phenyl)-6-(3,5-dimethylisoxazol-4-yl)-4-methyl-5,6-dihydro-4H-1,3-thiazin-2-amine] | 670 |
| Cc1noc(C)c1[C@@H]1C[C@@](C)(c2ccc(F)cc2F)N=C(N)S1 [Example 45, (4S,6S)-4-(2,4-difluorophenyl)-6-(3,5-dimethylisoxazol-4-yl)-4-methyl-5,6-dihydro-4H-1,3-thiazin-2-amine] | 150 |
| Cc1noc(C)c1[C@@H]1C[C@@](C)(c2cc(F)cc(F)c2)N=C(N)S1 [Example 49, (4S,6S)-4-(3,5-difluorophenyl)-6-(3,5-dimethylisoxazol-4-yl)-4-methyl-5,6-dihydro-4H-1,3-thiazin-2-amine] | 270 |
| Cc1nc([C@@H]2C[C@@](C)(c3cc(-c4cncnc4)c(F)cc3F)N=C(N)S2)c(C)o1 [Example 41, (4S,6S)-4-(2,4-difluoro-5-(pyrimidin-5-yl)phenyl)-6-(2,5-dimethyloxazol-4-yl)-4-methyl-5,6-dihydro-4H-1,3-thiazin-2-amine] | 233 |
| COc1ncccc1-c1cc([C@]2(C)C[C@@H](c3c(C)noc3C)SC(N)=N2)c(F)cc1F [Example 56, (4S,6S)-4-(2,4-difluoro-5-(2-methoxypyridin-3-yl)phenyl)-6-(3,5-dimethylisoxazol-4-yl)-4-methyl-5,6-dihydro-4H-1,3-thiazin-2-amine] | 670 |
